Results taken from PMC9407119, “Improving the Specific Activity and Thermostability of Psychrophilic Xylosidase AX543 by Comparative Mutagenesis” (Foods, 2022).

How the values were obtained:
Experiment in all cases: pNP release at […] nm, Lineweaver-Burk
Conditions in all cases: McIlvaine buffer, pH 6.0, 20 °C, 5 min, pNPX 0.1 to 2 mM
R7 = tested on: T1, R7; assay type: biochemical, Humicola insolens; Acremonium sp. WCQ6A
T1 construct: gene Xyl43A; Xyl43A with segment A4 (H232-D324) of AX543 at the C-terminus; pET-28a(+), E. coli BL21(DE3), purified

R5 = tested on: T2, R5; assay type: biochemical, Acremonium sp. WCQ6A; Humicola insolens
T2 construct: gene AX543; pET-28a(+), E. coli BL21(DE3), purified

R6 = tested on: T3, R6; assay type: biochemical, Humicola insolens; Acremonium sp. WCQ6A
T3 construct: gene AX543; pET-28a(+), E. coli BL21(DE3), purified

R3 = tested on: T4, R3; assay type: biochemical, Acremonium sp. WCQ6A; Humicola insolens
T4 construct: gene AX543; pET-28a(+), E. coli BL21(DE3), purified

R9 = tested on: T5, R9; assay type: biochemical, Humicola insolens; Acremonium sp. WCQ6A
T5 construct: gene Xyl43A; Xyl43A with segment A2 (T68-G160) of AX543; pET-28a(+), E. coli BL21(DE3), purified

R10 = tested on: T6, R10; assay type: biochemical, Humicola insolens; Acremonium sp. WCQ6A
T6 construct: gene AX543; Xyl43A with segment A1 (M1-K67) of AX543 at the N-terminus; pET-28a(+), E. coli BL21(DE3), purified

R2 = tested on: T7, R2; assay type: biochemical, Acremonium sp. WCQ6A; Humicola insolens
T7 construct: gene AX543; pET-28a(+), E. coli BL21(DE3), purified

R8 = tested on: T8, R8; assay type: biochemical, Humicola insolens; Acremonium sp. WCQ6A
T8 construct: gene Xyl43A; Xyl43A with segment A3 (D161-K231) of AX543; pET-28a(+), E. coli BL21(DE3), purified

R4 = tested on: T9, R4; assay type: biochemical, Acremonium sp. WCQ6A; Humicola insolens
T9 construct: gene AX543; pET-28a(+), E. coli BL21(DE3), purified

R1 = tested on: T10, R1; assay type: biochemical, Acremonium sp. WCQ6A; Humicola insolens
T10 construct: gene AX543; pET-28a(+), E. coli BL21(DE3), purified

`O=[N+]([O-])c1ccc(O[C@@H]2OC[C@@H](O)[C@H](O)[C@H]2O)cc1` [4-nitrophenyl-β-D-xylopyranoside] was tested, and the Km (R7) was 1630 ± 60 µM, the Km (R5) was 1210 ± 56 µM and the Km (R6) was 1190 ± 34 µM. It also gave a Km (R3) of 1000 ± 25 µM, a Km (R9) of 1320 ± 59 µM and a Km (R10) of 1870 ± 44 µM. For the same compound, the Km (R2) was 1170 ± 33 µM, the Km (R8) was 1300 ± 192 µM and the Km (R4) was 1840 ± 106 µM. The Km (R1) was 1250 ± 48 µM.
